Measured values as given in ChEMBL document CHEMBL3785005, “Novel triazole hybrids of myrrhanone C, a natural polypodane triterpene: Synthesis, cytotoxic activity and cell based studies” (Eur J Med Chem, 2016).
pIC50: −log10 of the molar value. The source made the active and inactive calls. No cut-off for these calls is given here.

Columns and labels:
[1] = test system: HeLa; assay: Cytotoxicity against human HeLa cells assessed as cell viability after 48 hrs by MTT assay; format: functional, cell-based
[2] = test system: A549; assay: Cell cycle arrest in human A549 cells assessed as accumulation at G0/G1 phase at 5 uM after 48 hrs by propidium iodide staining based flow cytometry (reference value: 80.19%); format: functional
[3] = test system: MCF7; assay: Cytotoxicity against human MCF7 cells assessed as cell viability after 48 hrs by MTT assay; format: functional, cell-based; details: MCF7, 48 h
[4] = test system: A549; assay: Cell cycle arrest in human A549 cells assessed as accumulation at G2/M phase at 5 uM after 48 hrs by propidium iodide staining based flow cytometry (reference value: 14.07%); format: functional
[5] = test system: A549; assay: Induction of apoptosis in human A549 cells assessed as early apoptotic cells at 10 uM after 48 hrs by Annexin V-FITC/propidium iodide staining based flow cytometry (reference value: 5.19%); format: functional
[6] = test system: A549; assay: Induction of apoptosis in human A549 cells assessed as late apoptotic cells at 5 uM after 48 hrs by Annexin V-FITC/propidium iodide staining based flow cytometry (reference value: 5.19%); format: functional
[7] = test system: A549; assay: Induction of apoptosis in human A549 cells assessed as early apoptotic cells at 5 uM after 48 hrs by Annexin V-FITC/propidium iodide staining based flow cytometry (reference value: 5.19%); format: functional
[8] = test system: A549; assay: Cell cycle arrest in human A549 cells assessed as accumulation at sub G1 phase at 5 uM after 48 hrs by propidium iodide staining based flow cytometry (reference value: 0.76%); format: functional
[9] = test system: A549; assay: Cell cycle arrest in human A549 cells assessed as accumulation at S phase at 5 uM after 48 hrs by propidium iodide staining based flow cytometry (reference value: 3.51%); format: functional
[10] = test system: A549; assay: Induction of apoptosis in human A549 cells assessed as viable cells at 5 uM after 48 hrs by Annexin V-FITC/propidium iodide staining based flow cytometry (reference value: 87.93%); format: functional; details: A549, 48 h, read-out: Activity
[11] = test system: A549; assay: Induction of apoptosis in human A549 cells assessed as viable cells at 10 uM after 48 hrs by Annexin V-FITC/propidium iodide staining based flow cytometry (reference value: 87.93%); format: functional; details: A549, 48 h, read-out: Activity
[12] = test system: A549; assay: Induction of apoptosis in human A549 cells assessed as cytoplasmic condensation at 5 to 10 uM after 48 hrs by Hoechst 33258 staining based fluorescence microscopic analysis; format: functional, cell-based
[13] = test system: A549; assay: Cell cycle arrest in human A549 cells assessed as accumulation at G2/M phase at 10 uM after 48 hrs by propidium iodide staining based flow cytometry (reference value: 14.07%); format: functional
[14] = test system: A549; assay: Induction of apoptosis in human A549 cells assessed as presence of apoptotic bodies at 5 to 10 uM after 48 hrs by Hoechst 33258 staining based fluorescence microscopic analysis; format: functional, cell-based
[15] = test system: HepG2; assay: Cytotoxicity against human HepG2 cells assessed as cell viability after 48 hrs by MTT assay; format: functional, cell-based; details: HepG2, 48 h
[16] = test system: A549; assay: Induction of apoptosis in human A549 cells assessed as necrotic cells at 10 uM after 48 hrs by Annexin V-FITC/propidium iodide staining based flow cytometry (reference value: 1.68%); format: functional
[17] = test system: A549; assay: Cell cycle arrest in human A549 cells assessed as accumulation at sub G1 phase at 10 uM after 48 hrs by propidium iodide staining based flow cytometry (reference value: 0.76%); format: functional
[18] = test system: A549; assay: Cell cycle arrest in human A549 cells assessed as accumulation at G0/G1 phase at 10 uM after 48 hrs by propidium iodide staining based flow cytometry (reference value: 80.19%); format: functional
[19] = test system: A549; assay: Induction of apoptosis in human A549 cells assessed as mitochondrial membrane potential at 10 uM after 48 hrs by JC-1 staining based flow cytometry (reference value: 92.5%); format: functional
[20] = Cytotoxicity against human DU145 cells assessed as cell viability after 48 hrs by MTT assay; format: functional, cell-based; details: DU-145, 48 h
[21] = test system: A549; assay: Induction of apoptosis in human A549 cells assessed as nuclear fragmentation at 5 to 10 uM after 48 hrs by Hoechst 33258 staining based fluorescence microscopic analysis; format: functional, cell-based
[22] = test system: A549; assay: Cytotoxicity against human A549 cells assessed as cell viability after 48 hrs by MTT assay; format: functional, cell-based; details: A549, 48 h
[23] = test system: A549; assay: Induction of apoptosis in human A549 cells assessed as mitochondrial membrane potential at 5 uM after 48 hrs by JC-1 staining based flow cytometry (reference value: 92.5%); format: functional
[24] = test system: A549; assay: Cell cycle arrest in human A549 cells assessed as accumulation at S phase at 10 uM after 48 hrs by propidium iodide staining based flow cytometry (reference value: 3.51%); format: functional
[25] = test system: A549; assay: Induction of apoptosis in human A549 cells assessed as late apoptotic cells at 10 uM after 48 hrs by Annexin V-FITC/propidium iodide staining based flow cytometry (reference value: 5.19%); format: functional
[26] = test system: A549; assay: Induction of apoptosis in human A549 cells assessed as necrotic cells at 5 uM after 48 hrs by Annexin V-FITC/propidium iodide staining based flow cytometry (reference value: 1.68%); format: functional

## CC(C)=CCC/C(C)=C/CC/C(C)=C/CC[C@@H]1[C@@]2(C)CC/C(=N\OCc3cn(-c4ccccc4)nn3)C(C)(C)[C@@H]2CC[C@@]1(C)O
[1]
  pIC50: 5.11
[2]
  Activity: 75.14%
[3]
  pIC50: 5.02
[4]
  Activity: 20%
[5]
  Activity: 5.4%
[6]
  Activity: 9.59%
[7]
  Activity: 5.23%
[8]
  Activity: 0.9%
[9]
  Activity: 2.86%
[10]
  viability at 5 µM: 84.4%
[11]
  viability at 10 µM: 76.9%
[12]
  Activity: Active
[13]
  Activity: 36.97%
[14]
  Activity: Active
[15]
  pIC50: 5.02
[16]
  Activity: 1.43%
[17]
  Activity: 1.02%
[18]
  Activity: 60.11%
[19]
  Activity: 83.5%
[20]
  pIC50: 5.05
[21]
  Activity: Active
[22]
  pIC50: 5.21
[23]
  Activity: 88.1%
[24]
  Activity: 0.34%
[25]
  Activity: 16.28%
[26]
  Activity: 0.81%

## COc1cc(OC)c(-n2cc(CO/N=C3\CC[C@]4(C)[C@@H](CC/C=C(\C)CC/C=C(\C)CCC=C(C)C)[C@](C)(O)CC[C@H]4C3(C)C)nn2)c(OC)c1
[1]
  pIC50: 4.89
[2]
  Activity: 76.47%
[3]
  pIC50: 4.83
[4]
  Activity: 18.52%
[5]
  Activity: 5%
[6]
  Activity: 8.56%
[7]
  Activity: 4.18%
[8]
  Activity: 0.73%
[9]
  Activity: 3%
[10]
  viability at 5 µM: 86%
[11]
  viability at 10 µM: 77.4%
[12]
  Activity: Active
[13]
  Activity: 31.32%
[14]
  Activity: Active
[15]
  pIC50: 4.85
[16]
  Activity: 1.8%
[17]
  Activity: 1.14%
[18]
  Activity: 65.77%
[19]
  Activity: 84.1%
[20]
  pIC50: 4.95
[21]
  Activity: Active
[22]
  pIC50: 5.09
[23]
  Activity: 88.7%
[24]
  Activity: 0.36%
[25]
  Activity: 15.83%
[26]
  Activity: 1.3%

## CC(C)=CCC/C(C)=C/CC/C(C)=C/CC[C@@H]1[C@@]2(C)CC/C(=N\OCc3cn(-c4cccc([N+](=O)[O-])c4)nn3)C(C)(C)[C@@H]2CC[C@@]1(C)O
[1]
  pIC50: 4.74
[3]
  pIC50: 4.68
[15]
  pIC50: 4.66
[20]
  pIC50: 4.76
[22]
  pIC50: 4.83

## CC(C)=CCC/C(C)=C/CC/C(C)=C/CC[C@@H]1[C@@]2(C)CC/C(=N\OCc3cn(-c4ccccc4C#N)nn3)C(C)(C)[C@@H]2CC[C@@]1(C)O
[1]
  pIC50: 4.67
[3]
  pIC50: 4.60
[15]
  pIC50: 4.66
[20]
  pIC50: 4.60
[22]
  pIC50: 4.70

## CC(C)=CCC/C(C)=C/CC/C(C)=C/CC[C@@H]1[C@@]2(C)CC/C(=N\OCc3cn(-c4ccc(F)cc4)nn3)C(C)(C)[C@@H]2CC[C@@]1(C)O
[1]
  pIC50: 4.67
[3]
  pIC50: 4.59
[15]
  pIC50: 4.20
[20]
  pIC50: 4.67
[22]
  pIC50: 4.75

## CC(C)=CCC/C(C)=C/CC/C(C)=C/CC[C@@H]1[C@@]2(C)C/C(=C\c3ccc(OCc4cn(-c5cccc(Br)c5)nn4)cc3)C(=O)C(C)(C)[C@@H]2CC[C@@]1(C)O
[1]
  pIC50: 4.43
[3]
  pIC50: 4.21
[15]
  pIC50: 4.63
[20]
  pIC50: 4.39
[22]
  pIC50: 4.47

## CC(C)=CCC/C(C)=C/CC/C(C)=C/CC[C@@H]1[C@@]2(C)CC/C(=N\OCc3cn(-c4cccc(O)c4)nn3)C(C)(C)[C@@H]2CC[C@@]1(C)O
[1]
  pIC50: 4.87
[3]
  pIC50: 5.00
[15]
  pIC50: 4.67
[20]
  pIC50: 4.76
[22]
  pIC50: 4.89

## CC(C)=CCC/C(C)=C/CC/C(C)=C/CC[C@@H]1[C@@]2(C)CC/C(=N\OCc3cn(-c4ccc(F)c(Cl)c4)nn3)C(C)(C)[C@@H]2CC[C@@]1(C)O
[1]
  pIC50: 4.70
[3]
  pIC50: 4.50
[15]
  pIC50: 4.23
[20]
  pIC50: 4.57
[22]
  pIC50: 4.67

## CC(C)=CCC/C(C)=C/CC/C(C)=C/CC[C@@H]1[C@@]2(C)C/C(=C\c3ccc(OCc4cn(-c5ccccc5)nn4)cc3)C(=O)C(C)(C)[C@@H]2CC[C@@]1(C)O
[1]
  pIC50: 4.44
[3]
  pIC50: 4.64
[15]
  pIC50: 3.90
[20]
  pIC50: 4.68
[22]
  pIC50: 4.00

## COc1cccc(-n2cc(COc3ccc(/C=C4\C[C@]5(C)[C@@H](CC/C=C(\C)CC/C=C(\C)CCC=C(C)C)[C@](C)(O)CC[C@H]5C(C)(C)C4=O)cc3)nn2)c1
[1]
  pIC50: 4.79
[3]
  pIC50: 4.78
[15]
  pIC50: 4.30
[20]
  pIC50: 4.84
[22]
  pIC50: 4.34

## CC(C)=CCC/C(C)=C/CC/C(C)=C/CC[C@@H]1[C@@]2(C)CC/C(=N\OCc3cn(-c4ccncc4)nn3)C(C)(C)[C@@H]2CC[C@@]1(C)O
[1]
  pIC50: 4.73
[3]
  pIC50: 4.90
[15]
  pIC50: 4.66
[20]
  pIC50: 4.76
[22]
  pIC50: 4.89

## CC(C)=CCC/C(C)=C/CC/C(C)=C/CC[C@@H]1[C@@]2(C)C/C(=C\c3ccc(OCc4cn(-c5ccc(F)c(Cl)c5)nn4)cc3)C(=O)C(C)(C)[C@@H]2CC[C@@]1(C)O
[1]
  pIC50: 4.37
[3]
  pIC50: 4.33
[15]
  pIC50: 4.40
[20]
  pIC50: 4.55
[22]
  pIC50: 4.33

## CC(C)=CCC/C(C)=C/CC/C(C)=C/CC[C@@H]1[C@@]2(C)C/C(=C\c3ccc(OCc4cn(-c5c(Cl)cc([N+](=O)[O-])cc5Cl)nn4)cc3)C(=O)C(C)(C)[C@@H]2CC[C@@]1(C)O
[1]
  pIC50: 4.43
[3]
  pIC50: 4.57
[15]
  pIC50: 4.60
[20]
  pIC50: 4.68
[22]
  pIC50: 4.46

## CC(C)=CCC/C(C)=C/CC/C(C)=C/CC[C@@H]1[C@@]2(C)CC/C(=N\OCc3cn(-c4ccc(Cl)cc4)nn3)C(C)(C)[C@@H]2CC[C@@]1(C)O
[1]
  pIC50: 4.83
[3]
  pIC50: 4.91
[15]
  pIC50: 4.70
[20]
  pIC50: 4.79
[22]
  pIC50: 4.91

## CC(C)=CCC/C(C)=C/CC/C(C)=C/CC[C@@H]1[C@@]2(C)C/C(=C\c3ccc(OCc4cn(-c5cccc([N+](=O)[O-])c5)nn4)cc3)C(=O)C(C)(C)[C@@H]2CC[C@@]1(C)O
[1]
  pIC50: 4.48
[3]
  pIC50: 4.10
[15]
  pIC50: 3.93
[20]
  pIC50: 4.33
[22]
  pIC50: 3.90
